Test results reported in paper PMC6332026, “Synthesis and Pharmacochemistry of New Pleiotropic Pyrrolyl Derivatives” (Molecules, 2015).
Marks after values point to notes of the source that are not given here.

Key:
[1] = tested on: carrageenan-induced rat paw edema; assay: Inhibition of rat paw edema induced by carrageenan; type: in vivo, Fischer 344 rats; details: 0.01 mmol/kg body weight, intraperitoneally, 3.5 h; for inhibition in vivo at 10 µmol/kg: Rattus norvegicus, ip, read-out: CPE % inhibition of rat paw edema induced by carrageenan
Description: The pyrrolyl derivatives, as well as their precursor chalcones were tested in vivo for the inhibition of rat paw edema induced by carrageenan. […] […]. For Compounds 2i, 2iii, 2iv and 2v, we determined their ED50 values. […]. The finding supports the primary idea of this design.
Edema was induced in the right hind paw of Fischer 344 rats (150–200 g). In the study, both males and females were included, with the exemption of pregnant females. The animals, which have been bred in our laboratory, were housed under standard conditions and received a diet of commercial food pellets and water ad libitum during maintenance. One hour before the onset of the experiment, food and water were removed. The tested compounds (dose 0.01 mmol/kg body weight) were diluted in water with a few drops of Tween 80, and they were administered intraperitoneally simultaneously with the intradermal injection of 0.1 mL 2% of carrageenan in water. The animals were euthanatized 3.5 h after the carrageenan administration. The difference between the weight of injected and uninjected paws was calculated for each animal and was compared to control animals, which were treated with water. Indomethacin was used as a reference compound in 0.01 mmol/kg. The results were expressed as the percent inhibition of the edema (CPE %).

[2] = Superoxide radical scavenging activity (non-enzymatic, PMS/NADH, NBT method); details: 100 μM
Text: Superoxide anion radical is an active form of oxygen, and it is the product of the one-electron reduction of […] oxygen. Herein, superoxide radicals were formed by mixing phenazine methosulfate (PMS) with NADH and air-oxygen. The production of radicals was estimated with the nitroblue-tetrazolium method (NBT). From the tested pyrroles, Compounds 2i and 2iii were equipotent (57%) scavengers. […] In contrast, the dipole moment appeared to be important. The values of the dipole, as calculated by the program Spartan v.5.1.3.
The superoxide anion radicals were produced non-enzymatically by mixing phenazine methosulfate (PMS) with NADH and air-oxygen. The production of superoxide radicals was estimated with the nitroblue-tetrazolium (NBT) method with 3 μΜ PMS, 78 μΜ NADH and 25 μΜ NBT in 19 μΜ phosphate buffer pH 7.4. The absorbance was measured at 560 nm at room temperature. The tested compounds were added in the mixture 2 min before the addition of NADH [52].

[3] = Lipophilicity as RM values by reverse-phase thin layer chromatography (RPTLC); type: physicochemical; details: methanol/water 75/25 v/v with ammonia drops
Text: Since lipophilicity is a significant physicochemical property determining the absorption, distribution, metabolism and excretion properties (ADME) of drugs, we attempted to determine experimentally the lipophilicity as RM values with reverse-phase thin layer chromatography (RPTLC). Lipophilicity was also theoretically calculated as Clog P values. According to the calculated Clog P values, the most lipophilic compounds were 2iii (6.37) and 2v (6.04). However, this observation was not supported by the RM values, since Compound 2iii presented very low lipophilicity (−0.061). Furthermore, the lipophilicity of Compound 2v could not be determined experimentally under the reported conditions. Attempts to correlate Clog P and RM values failed. From our results (Table 2), it can be concluded that RM values could not be used as a successful relative measure of the overall lipophilic/hydrophilic properties of these molecules. Tentatively, this can be attributed to the different nature of the hydrophilic and lipophilic phases in the two systems. Clog P refers to n-octanol/water, whereas RM in this case refers to methanol/water. Moreover, it is likely that pyrrole derivatives form hydrogen bonds within the hydrophilic phase.
Reverse-phase thin layer chromatography (RPTLC) was used for the determination of RM values. Silica gel plates were saturated with 5% v/v liquid paraffin in petroleum ether, and the mobile phase was methanol/water (75/25 v/v) with the addition of ammonia drops. Spots were detected under UV light. RM values were determined by the corresponding Rf values (from five measurements for each compound) using the equation [43]: RM = log[(1/Rf) − 1](1)

[4] = Inhibition of heme-dependent lipid peroxidation of linoleic acid (TBA method); details: pH 7.4, 37 °C
Description: The anti-lipid peroxidation activity was determined through the inhibition of heme-dependent lipid peroxidation. The peroxidation of sodium linoleate is induced from a mixture of heme and hydrogen peroxide, which produces free radicals from the side chains of amino acids. The assay is performed at pH 7.4 with a phosphate buffer, and the products of peroxidation are identified with the thiobarbituric acid method (TBA). In particular, malonic dialdehyde, a final product of lipid peroxidation, reacts with TBA and forms a colored product, whose absorbance is measured at 535 nm. […] Compounds 2ii and 2vi with low Clog P values are weak inhibitors of lipid peroxidation. It seems that the increase of volume of Ar^1, measured as molar refractivity MR (Ar^1), enhances IC50 values and reduces the inhibitory activity (2i and 2iii; and 2ii, 2iv and 2vi). For derivatives 2iv and 2v, the presence of an electron-acceptor, e.g., a chloro-substituent on the phenyl ring (Ar^2), diminishes the anti-lipid peroxidation activity.
Firstly, 0.4 mL of heme (50 μΜ), 0.25 mL of sodium linoleate (400 μΜ), 0.1 mL of the solutions of the tested compounds (concentrations varying from 10–100 μΜ in DMSO) and 0.25 mL of H2O2 (500 μΜ) were incubated for 10 min in 37 °C in a phosphate buffer (KH2PO4–KOH 50 mM, pH 7.4). The peroxidation products were identified with the reaction of thiobarbituric acid, by adding successively 0.5 mL of 40% trichloroacetic acid (TCA) and 0.5 mL of 2% of thiobarbituric acid (TBA). The addition was followed by stirring and heating at 90 °C for 20 min, and then, 1 mL of acetic acid and 1 mL of chloroform were added and the absorbance measured at 535 nm. IC50 values were determined.

COX-2 = target: T1, COX-2 (Homo sapiens, UniProt P35354); assay: Inhibition of cycloxygenase-2 (colorimetric TMPD assay)
T1 sequence (P35354 18-604): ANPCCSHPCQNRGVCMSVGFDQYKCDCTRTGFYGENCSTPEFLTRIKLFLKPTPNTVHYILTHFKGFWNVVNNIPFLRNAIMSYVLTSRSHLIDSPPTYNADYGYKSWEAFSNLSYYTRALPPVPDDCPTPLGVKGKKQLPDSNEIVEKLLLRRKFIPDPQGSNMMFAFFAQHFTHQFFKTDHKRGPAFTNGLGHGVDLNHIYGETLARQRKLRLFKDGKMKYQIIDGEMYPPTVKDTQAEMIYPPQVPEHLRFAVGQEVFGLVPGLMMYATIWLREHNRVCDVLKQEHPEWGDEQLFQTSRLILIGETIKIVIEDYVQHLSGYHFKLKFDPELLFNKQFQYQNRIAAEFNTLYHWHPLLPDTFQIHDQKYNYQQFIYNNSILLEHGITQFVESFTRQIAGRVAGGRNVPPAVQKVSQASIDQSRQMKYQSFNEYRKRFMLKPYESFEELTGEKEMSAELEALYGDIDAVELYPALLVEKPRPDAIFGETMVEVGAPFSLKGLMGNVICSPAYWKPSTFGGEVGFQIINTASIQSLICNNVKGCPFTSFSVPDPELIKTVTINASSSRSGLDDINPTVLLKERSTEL
Description: The inhibition of COX-2, as a peroxidase, was determined by a colorimetric assay with the oxidation of N,N,N′,N′-tetramethyl-p-phenylenediamine (TMPD).
COX-2 inhibitory activity was determined by using arachidonic acid (AA) as a substrate in buffer (0.1 M Tris pH 8.5) and TMPD as a co-substrate.

[5] = Interaction with the stable free radical DPPH (reducing activity); details: for RA % (interaction with DPPH): DPPH 50 μM; for interaction with DPPH: 10 μM compound
Description: 2,2-Diphenyl-1-picrylhydrazyl (DPPH) is a lipophilic, free, stable radical, which absorbs at 517 nm (violet color). Upon reduction, decolorization is observed that is stoichiometric to the number of received electrons and is representative of the antioxidant ability of compounds. […] This interaction, which indicates their radical scavenging ability in an iron-free system, was measured at 100 and 1000 μM after 20 and 60 min, whereas the final concentration of DPPH was stable at 50 μΜ.
[…] The absorbance was measured at 517 nm after 20 and 60 min at room temperature.

interleukin-6 (IL-6) = target: T2, interleukin-6 (IL-6) (Mus musculus, UniProt P08505); assay: Inhibition of interleukin-6 (immunometric double antibody sandwich EIA); type: biochemical; details: compound 10 μM; IL-6 1500 pg/mL
T2 construct: purchased Cayman Item No. 583371
T2 sequence (P08505 25-211): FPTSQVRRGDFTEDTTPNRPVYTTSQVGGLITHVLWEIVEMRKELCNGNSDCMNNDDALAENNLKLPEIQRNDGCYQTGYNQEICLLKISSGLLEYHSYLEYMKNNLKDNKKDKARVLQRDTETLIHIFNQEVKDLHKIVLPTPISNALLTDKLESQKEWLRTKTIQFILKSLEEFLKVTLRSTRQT
Description: The assay used for the inhibition of IL-6 is based on an immunometric double antibody method (sandwich technique). […] Both compounds gave satisfactory biological responses, both in high and in low concentrations of IL-6 (Table 8).
The method was based on an immunometric double antibody sandwich technique. Each well of the microwell plate was coated with a specific for mouse IL-6 rat monoclonal antibody. Tested compounds at 10 μΜ and standards were incubated in the wells, and after rinsing, a second monoclonal antibody was added, which was conjugated with biotin and detected the captured IL-6. The recognition of double antibody sandwiches was done with HRP-conjugated streptavidin. The concentration of IL-6 was determined by measuring the enzymatic activity of HRP using the chromogenic substrate TMB (3,3′,5,5′-tetramethylbenzidine). The absorbance of the reaction product was measured at 450 nm, and the intensity of the color was directly proportional to the amount of bound HRP-streptavidin conjugate, which was proportional to the concentration of IL-6.

Row | SMILES | melting point | RA % (interaction with DPPH) ([5]; 100 μM compound, 20 min) | RA % (interaction with DPPH) ([5]; 100 μM compound, 60 min) | RA % (interaction with DPPH) ([5]; 1000 μM compound, 20 min) | inhibition in vivo at 10 µmol/kg [1] | further results
1 | O=C(C=Cc1cccc2ccccc12)c1ccc(Cl)cc1 [Compound 1v, 3-(Naphth-1-yl)-1-(4-chloro)phenylprop-2-en-1-one] | – | – | – | – | – | CPE % inhibition of rat paw edema induced by carrageenan [1]: 44 ^d %
2 | CC(Cc1ccc(O)c(O)c1)C(C)Cc1ccc(O)c(O)c1 (stereo not drawn) [NDGA, nordihydroguaiaretic acid, reference compound] | – | 81% | 83% | 96% | – | RA % (interaction with DPPH) ([5]; 1000 μM compound, 60 min): 96%
3 | O=C(C=Cc1cccc2ccccc12)c1ccccc1 [Compound 1iv, 3-(Naphth-1-yl)-1-phenylprop-2-en-1-one] | – | – | – | – | 40% | –
4 | O=C(C=Cc1ccc2[nH]ccc2c1)c1ccccc1 [Compound 1vi, 3-(1H-Indol-5-yl)-1-phenylprop-2-en-1-one] | – | – | – | – | 42% | –
5 | CN(C)c1ccc(C=CC=CC(=O)c2ccccc2)cc1 [Compound 1ii, 5-[4-(Dimethylamino)phenyl]-1-phenylpenta-2,4-dien-1-one] | – | 31% | 13% | 38% | 69% | RA % (interaction with DPPH) ([5]; 1000 μM compound, 60 min): 42%
6 | COc1ccc2c(c1)c(CC(=O)O)c(C)n2C(=O)c1ccc(Cl)cc1 [Indomethacin, reference compound] | – | – | – | – | 53% | inhibition at 10 µM (interleukin-6 (IL-6)): 100%
7 | O=C(O)/C=C/c1ccc(O)c(O)c1 [Caffeic acid, reference compound] | – | – | – | – | – | O2^•− % superoxide radical scavenging activity [2]: 86.1%; IC50 ([4]; read-out: LP IC50 (inhibition of heme-dependent lipid peroxidation of linoleic acid)): 6 µM

Further lines, with some results ahead:

Row | melting point | SMILES | RA % (interaction with DPPH) ([5]; 100 μM compound, 20 min) | RA % (interaction with DPPH) ([5]; 100 μM compound, 60 min) | RA % (interaction with DPPH) ([5]; 1000 μM compound, 20 min) | inhibition in vivo at 10 µmol/kg [1] | further results
8 | 247 to 248 °C | O=C(c1ccccc1)c1c[nH]cc1-c1ccc2[nH]ccc2c1 [Compound 2vi, [4-(1H-Indol-5-yl)-1H-pyrrol-3-yl](phenyl)methanone] | – | – | – | – | O2^•− % superoxide radical scavenging activity [2]: 86%; RM [3]: −0.685; LP IC50 (inhibition of heme-dependent lipid peroxidation of linoleic acid) [4]: inactive; COX-2 % inhibition (COX-2; 100 μM): inactive
9 | 219 to 220 °C | CN(C)c1ccc(/C=C/c2c[nH]cc2C(=O)c2ccccc2)cc1 [Compound 2ii, (E)-{4-[4-(Dimethylamino)styryl]-1H-pyrrol-3-yl}(phenyl)methanone] | 86% | 88% | 99% | 89% | RM [3]: 0.073; LP IC50 (inhibition of heme-dependent lipid peroxidation of linoleic acid) [4]: inactive; inhibition at 100 µM (COX-2; read-out: COX-2 % inhibition): 47%; interaction with DPPH ([5]; 20 min): 35%; interaction with DPPH ([5]; 60 min): 40%; RA % (interaction with DPPH) ([5]; 1000 μM compound, 60 min): 96%
10 | 141 to 143 °C | O=C(C=Cc1ccc(OCc2ccc(Br)cc2)cc1)c1cccs1 [Compound 1iii, 3-{4-[(4-Bromobenzyl)oxy]phenyl}-1-(thien-2-yl)prop-2-en-1-one] | – | – | – | 86% | –
11 | 48 to 50 °C | O=C(C=Cc1cccc(Oc2ccccc2)c1)c1cccs1 [Compound 1i, 3-(3-Phenoxyphenyl)-1-(thien-2-yl)prop-2-en-1-one] | 43% | 2% | 5% | 41% | –
